Data set [1] is described as follows: Partition co-efficient, log P of the compound. The format is physicochemical. Conditions: octanol/water.
A short description of data set [2]: Solubility in water. The format is physicochemical.
Data set [3] can be described thus: Aqueous solubility at pH 1.3. The format is physicochemical. Conditions: buffer.
Data set [4] can be described thus: Aqueous solubility at pH 7.4. The format is physicochemical. The following applies: buffer.
The nature of data set [5]: Aqueous solubility at pH 5.0. The format is physicochemical. The following applies: buffer.
For data set [6], the system named is Rattus norvegicus. In words: Decrease in plasmatic superoxide dismutase activity after 1 hr and 3 hrs of administration of 132.64 mg/kg to Wistar rats. The format is functional, organism-based. Also on record: dose 132.64 mg/kg.
Data set [7] deals with Rattus norvegicus. In words: Increase in plasmatic Glutathione peroxidase activity after 3 hrs of administration of 132.64 mg/kg to Wistar rats. On the set-up: dose 132.64 mg/kg. Type of data set: functional, organism-based.
In data set [8] the test system is Rattus norvegicus. In words: Increase in plasmatic Glutathione peroxidase activity after 1 hr of administration of 132.64 mg/kg to Wistar rats. The format is functional, organism-based. Also on record: dose 132.64 mg/kg.
For data set [9], the system named is Rattus norvegicus. In words: Decrease in grooming behavior of Wistar rats after 2 hrs of administration of 132.64 mg/kg. Type of data set: functional, organism-based. On the set-up: dose 132.64 mg/kg.
Data set [10] relates to Rattus norvegicus. In words: Increase in plasmatic Glutathione peroxidase activity after 1 hr of administration of 160.54 mg/kg to Wistar rats. Type of data set: functional, organism-based. On the set-up: dose 160.54 mg/kg.
Data set [11] relates to Rattus norvegicus. In words: Decrease in plasmatic superoxide dismutase activity after 1 hr and 3 hrs of administration of 160.54 mg/kg to Wistar rats. The format is functional, organism-based. Also on record: dose 160.54 mg/kg.
Data set [12] relates to Rattus norvegicus. In words: Decrease in grooming behavior of Wistar rats after 1 hr of administration of 160.54 mg/kg. Type of data set: functional, organism-based. Also on record: dose 160.54 mg/kg.

Structures are written as SMILES. Converted amounts (≈) assume the structure as drawn. The source made the active and inactive calls. No cut-off for these calls is given here.

Consider `CC(=O)Oc1ccc(CCNC(=O)CCCC[C@@H]2CCSS2)cc1OC(C)=O`, for which the lipophilicity (logP) in data set [1] amounted to 3.65. Also, the solubility in data set [2] worked out at 49 µg/mL (≈ 115 µM); in data set [3], 0.47 µg/mL (≈ 1.1 µM); in data set [4], 52 µg/mL (≈ 122 µM); in data set [5] it was 47 µg/mL (≈ 110 µM).
Take `COC(=O)[C@H](Cc1ccc(O)c(O)c1)NC(=O)CCCC[C@@H]1CCSS1`: the result with Rattus norvegicus [6], in the data set on Rattus norvegicus [7], in the data set on Rattus norvegicus [8] and in the data set with Rattus norvegicus [9] was Active. Also, in data set [1], the logP was determined as 2.16. Further, the solubility is 12 µg/mL (≈ 30 µM) in [2], 13 µg/mL (≈ 32.5 µM) in data set [4] and 11 µg/mL (≈ 27.5 µM) in [5].
Take `COC(=O)[C@H](Cc1ccc(OC(C)=O)c(OC(C)=O)c1)NC(=O)CCCC[C@@H]1CCSS1`: the logP in data set [1] amounted to 2.77. Besides, the solubility in data set [2] is 233 µg/mL (≈ 482 µM); in data set [3], 39 µg/mL (≈ 80.6 µM); in data set [4], 38 µg/mL (≈ 78.6 µM); in [5], 24 µg/mL (≈ 49.6 µM). The outcome with Rattus norvegicus [10], in the data set with Rattus norvegicus [11] and in the data set on Rattus norvegicus [12] was Active.
Consider `O=C(CCCC[C@@H]1CCSS1)NCCc1ccc(O)c(O)c1`, for which the logP in data set [1] worked out at 3.4. Moreover, the solubility in data set [2] came to 0.36 µg/mL (≈ 1.05 µM); in [3] it was 0.87 µg/mL (≈ 2.55 µM); in data set [4] it was 1.1 µg/mL (≈ 3.22 µM).

Usually logP stands for a log measure of how a compound divides between an organic and an aqueous phase. Low readings indicate lower lipophilicity, high ones higher lipophilicity. By solubility is commonly meant the dissolved amount per volume that the medium holds. A higher solubility goes with much dissolved substance.

These data come from ChEMBL document CHEMBL1138135, “L-dopa- and dopamine-(R)-alpha-lipoic acid conjugates as multifunctional codrugs with antioxidant properties” (J Med Chem, 2006).
